# Results published in patent publication US20240139167A1, “LYSOSOME-ASSOCIATED MEMBRANE PROTEIN TARGETING COMPOUNDS AND USES THEREOF” (HADASIT MEDICAL RESEARCH SERVICES AND DEVELOPMENT LTD., priority 2021, published 2024).
# What was measured:
# [1] = Irwin test (abnormal spontaneous behavior); type: in vivo, mice; set-up: Wounds / Transfer behavior / Tremor / Gait / Tail elevation / Touch escape / Trunk curl / Righting reflex / Salivation / Extension reflex: scale not given here
# From the text: The inventors have tested Compound 1 (FIG. 1A) for its capacity to correct the deficient motor phenotypes and short lifespan in the APBD mouse model Gbe^ys/ys. Compound 1 is one of 19 PG reducing HTS hits previously discovered by the inventors. It was selected by in silico ADMET (Absorption, Distribution, Metabolism, Excretion, and Toxicity) tests run on these hits to predict which of them should be safe and pharmacokinetically and pharmacodynamically preferred and is therefore worth further pursuit (FIG. 8, compound “A”). […] Following 1 h and 24 h treatments, mice were also examined for abnormal spontaneous behavior, such as immobility, excessive running, stereotyped movements, and abnormal posture (Irwin tests).
# Gbe^ys/ys mice = assay: Survival, weight and motor phenotypes in APBD mouse model; type: in vivo
# From the text: Pictures of 7-months old Gbe^ys/ys mice treated with vehicle (1L), or Compound 1 (1M) for 3 months prior to photography.
# The presented experiments combine in vivo, ex vivo and in vitro studies on the therapeutic potential of the newly discovered compound Compound 1 for treating APBD. In the in vivo section, the inventors have tested Compound 1 for its capacity to correct disease phenotypes in Gbe^ys/ys female mice. Two arms, 5% DMSO vehicle and Compound 1, of initially n=7-9 animals each were used. […] Additional open field, gait, and extension reflex tests (FIGS. 1E-1H) also included a C57BL/6 wild type control arm of n=9 animals. Animals were excluded from the experiment if weight was reduced by >10% between sequential weightings or by >20% from initiation. […] 150 μL of 250 mg/kg Compound 1 in 5% DMSO were injected twice a week. Vehicle control was 5% DMSO. Injection was intravenous (IV) for the first month, followed by subcutaneous (SC) injection due to lack of injection space and scaring in animal tails. The inventors initiated the injections either at the age of 4 months, two months prior to disease onset, assuming a preferred prophylactic effect, or at the 6 months age of onset for comparison. Treatment was continued until the age of 10 months. The effect of Compound 1 on various motor parameters was tested approximately every two weeks. At the end of these experiments, some of the mice were sacrificed by cervical dislocation and tissues from n=2 wild type, n=7 Gbe^ys/ys vehicle-treated, and n=9 Compound 1-treated mice were collected, sectioned, fixed, and stained for diastase-resistant PG by PAS (FIGS. 2A-2C). Tissue glycogen was determined biochemically as described. In addition, Compound 1 pharmacokinetic profile was determined by LC-MS/MS in serum and tissues derived from n=3 mice/time point. Experimenters were blinded to treatment allocation.
# In FIGS. 1A-1M the significance of overall trends was tested by Two-way ANOVA with repeated measures. […] The Bonferroni test was used to compare between Compound 1 and vehicle in a way which corrects for the multiple comparisons and is therefore very robust (since the threshold for determining significance at each time point is reduced in a manner inversely proportional to the number of comparisons). […] In FIGS. 4D and 6E the inventors used One Way ANOVA with Sidak's post-hoc correction for multiple comparisons. Other statistical tests used were Student t-tests.
compound,measurement,setting,value
COCCN(Cc1sccc1C)C(=O)c1cc(C)nc(O)c1 [Compound 1],Appearance of fur,"[1]; 50 mg/kg, 1 h",2
same,Body position,"[1]; 50 mg/kg, 1 h",3.5
same,Coat color,"[1]; 50 mg/kg, 1 h",Black
same,Extension reflex,"[1]; 50 mg/kg, 1 h",2
same,Gait,"[1]; 50 mg/kg, 1 h",0
same,Patches of missing fur on body,"[1]; 50 mg/kg, 1 h",0
same,Patches of missing fur on face,"[1]; 50 mg/kg, 1 h",0
same,Pelvic elevation,"[1]; 50 mg/kg, 1 h",2
same,Piloerection,"[1]; 50 mg/kg, 1 h",0
same,Positional passivity,"[1]; 50 mg/kg, 1 h",0
same,Presence of whiskers,"[1]; 50 mg/kg, 1 h",3
same,Righting reflex,"[1]; 50 mg/kg, 1 h",0
same,Salivation,"[1]; 50 mg/kg, 1 h",0
same,Tail elevation,"[1]; 50 mg/kg, 1 h",1
same,Touch escape,"[1]; 50 mg/kg, 1 h",2
same,Transfer behavior,"[1]; 50 mg/kg, 1 h",5
same,Tremor,"[1]; 50 mg/kg, 1 h",0
same,Trunk curl,"[1]; 50 mg/kg, 1 h",0
same,Wounds,"[1]; 50 mg/kg, 1 h",0
same,Appearance of fur,"[1]; 50 mg/kg, 24 h",2
same,Body position,"[1]; 50 mg/kg, 24 h",3.5
same,Coat color,"[1]; 50 mg/kg, 24 h",Black
same,Extension reflex,"[1]; 50 mg/kg, 24 h",2
same,Gait,"[1]; 50 mg/kg, 24 h",0
same,Patches of missing fur on body,"[1]; 50 mg/kg, 24 h",0
same,Patches of missing fur on face,"[1]; 50 mg/kg, 24 h",0
same,Pelvic elevation,"[1]; 50 mg/kg, 24 h",2
same,Piloerection,"[1]; 50 mg/kg, 24 h",0
same,Positional passivity,"[1]; 50 mg/kg, 24 h",0
same,Presence of whiskers,"[1]; 50 mg/kg, 24 h",3
same,Righting reflex,"[1]; 50 mg/kg, 24 h",0
same,Salivation,"[1]; 50 mg/kg, 24 h",0
same,Tail elevation,"[1]; 50 mg/kg, 24 h",1
same,Touch escape,"[1]; 50 mg/kg, 24 h",2
same,Transfer behavior,"[1]; 50 mg/kg, 24 h",5
same,Tremor,"[1]; 50 mg/kg, 24 h",0
same,Trunk curl,"[1]; 50 mg/kg, 24 h",0
same,Wounds,"[1]; 50 mg/kg, 24 h",0
same,Appearance of fur,"[1]; 250 mg/kg, 1 h",2
same,Body position,"[1]; 250 mg/kg, 1 h",3
same,Coat color,"[1]; 250 mg/kg, 1 h",Black
same,Extension reflex,"[1]; 250 mg/kg, 1 h",2
same,Gait,"[1]; 250 mg/kg, 1 h",0
same,Patches of missing fur on body,"[1]; 250 mg/kg, 1 h",0
same,Patches of missing fur on face,"[1]; 250 mg/kg, 1 h",0
same,Pelvic elevation,"[1]; 250 mg/kg, 1 h",2
same,Piloerection,"[1]; 250 mg/kg, 1 h",0
same,Positional passivity,"[1]; 250 mg/kg, 1 h",0
same,Presence of whiskers,"[1]; 250 mg/kg, 1 h",3
same,Righting reflex,"[1]; 250 mg/kg, 1 h",0
same,Salivation,"[1]; 250 mg/kg, 1 h",0
same,Tail elevation,"[1]; 250 mg/kg, 1 h",1
same,Touch escape,"[1]; 250 mg/kg, 1 h",2
same,Transfer behavior,"[1]; 250 mg/kg, 1 h",5
same,Tremor,"[1]; 250 mg/kg, 1 h",0
same,Trunk curl,"[1]; 250 mg/kg, 1 h",0
same,Wounds,"[1]; 250 mg/kg, 1 h",0
same,Appearance of fur,"[1]; 250 mg/kg, 24 h",2
same,Body position,"[1]; 250 mg/kg, 24 h",3
same,Coat color,"[1]; 250 mg/kg, 24 h",Black
same,Extension reflex,"[1]; 250 mg/kg, 24 h",2
same,Gait,"[1]; 250 mg/kg, 24 h",0
same,Patches of missing fur on body,"[1]; 250 mg/kg, 24 h",0
same,Patches of missing fur on face,"[1]; 250 mg/kg, 24 h",0
same,Pelvic elevation,"[1]; 250 mg/kg, 24 h",2
same,Piloerection,"[1]; 250 mg/kg, 24 h",0
same,Positional passivity,"[1]; 250 mg/kg, 24 h",0
same,Presence of whiskers,"[1]; 250 mg/kg, 24 h",3
same,Righting reflex,"[1]; 250 mg/kg, 24 h",0
same,Salivation,"[1]; 250 mg/kg, 24 h",0
same,Tail elevation,"[1]; 250 mg/kg, 24 h",1
same,Touch escape,"[1]; 250 mg/kg, 24 h",2
same,Transfer behavior,"[1]; 250 mg/kg, 24 h",5
same,Tremor,"[1]; 250 mg/kg, 24 h",0
same,Trunk curl,"[1]; 250 mg/kg, 24 h",0
same,Wounds,"[1]; 250 mg/kg, 24 h",0
same,adverse effect in Irwin tests,[1]; 1 h and 24 h treatments,did not cause any adverse effect
same,animal weight over time,Gbe^ys/ys mice; 250 mg/kg twice a week from age 4 months,mitigated the decline in animal weight over time
same,animal survival,"Gbe^ys/ys mice; 250 mg/kg twice a week from age 4 months, vs 5% DMSO vehicle",significantly improved animal survival
same,"ameliorating effect on open field, weight and overall extension reflex",Gbe^ys/ys mice; administered after disease onset at the age 6 months,ameliorating effect did not take place
same,Extension reflex,"Gbe^ys/ys mice; administered at onset (6 months), at the age of 9 months",only parameter improved by the compound from the advanced stage of the disease
same,open field performance,"Gbe^ys/ys mice; from 8 months, 134 days post injection",improved open field performance
same,gait (stride length),Gbe^ys/ys mice; mouse age of 9 months,"improved gait, or increased stride length"
same,overall extension reflex,"Gbe^ys/ys mice; throughout the study period, p<0.05",significantly improved
